pIC50: −log10 of the molar value.
What follows are compounds tested against T1, menin-MLL interaction (Homo sapiens, UniProt O00255) (assay: biochemical).
T1 sequence (O00255 1-610): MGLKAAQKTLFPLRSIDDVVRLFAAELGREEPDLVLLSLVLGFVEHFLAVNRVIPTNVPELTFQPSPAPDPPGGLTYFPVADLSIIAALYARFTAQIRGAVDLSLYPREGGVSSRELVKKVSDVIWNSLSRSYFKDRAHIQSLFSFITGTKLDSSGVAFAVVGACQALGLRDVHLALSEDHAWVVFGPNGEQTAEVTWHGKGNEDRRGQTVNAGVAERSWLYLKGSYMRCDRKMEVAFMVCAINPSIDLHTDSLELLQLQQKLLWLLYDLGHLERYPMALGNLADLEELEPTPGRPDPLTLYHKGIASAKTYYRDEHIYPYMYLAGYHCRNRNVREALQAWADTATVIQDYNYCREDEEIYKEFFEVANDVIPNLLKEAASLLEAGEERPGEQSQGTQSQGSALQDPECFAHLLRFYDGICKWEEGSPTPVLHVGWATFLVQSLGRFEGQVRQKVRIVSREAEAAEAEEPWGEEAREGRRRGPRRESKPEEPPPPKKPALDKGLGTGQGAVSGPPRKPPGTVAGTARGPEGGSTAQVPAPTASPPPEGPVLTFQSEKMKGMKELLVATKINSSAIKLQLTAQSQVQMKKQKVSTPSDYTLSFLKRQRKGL
Source text: Compounds that inhibit the interaction decrease the fluorescence anisotropy which is being used as a read-out for compound screening and for IC50 determination.

pIC50 | Compound
5.70 to 6.30 | FC(F)(F)Cc1cc2c(NCC3CCN(Cc4ccc(OC(F)(F)F)cc4)CC3)ncnc2s1 [Compound 271]
5.70 to 6.30 | FC(F)(F)Cc1cc2c(NCC3CCN(Cc4ccc(CN5CCOCC5)cc4)CC3)ncnc2s1 [Compound 272]
5.70 to 6.30 | COc1ccc(CN2CCC(CNc3ncnc4sc(CC(F)(F)F)cc34)CC2)cc1 [Compound 273]
5.70 to 6.30 | FC(F)(F)Cc1cc2c(NCC3CCN(Cc4ccccc4C(F)(F)F)CC3)ncnc2s1 [Compound 274]
5.70 to 6.30 | Cc1ccc(CN2CCC(CNc3ncnc4sc(CC(F)(F)F)cc34)CC2)cc1 [Compound 275]
5.70 to 6.30 | FC(F)(F)Cc1cc2c(NCC3CCN(Cc4ccc(C(F)(F)F)cc4)CC3)ncnc2s1 [Compound 276]
5.70 to 6.30 | FC(F)(F)Cc1cc2c(NCC3CCN(Cc4ccccc4)CC3)ncnc2s1 [Compound 277]
> 7.00 | N#Cc1cc2cc(CN3CCC(Nc4c(CO)cnc5sc(CC(F)(F)F)cc45)CC3)ccc2[nH]1 [Compound 278]
> 7.00 | N#Cc1cc2cc(CN3CCC(Nc4c(C#N)cnc5sc(CC(F)(F)F)cc45)CC3)ccc2[nH]1 [Compound 279]
> 7.00 | OCc1cnc2sc(CC(F)(F)F)cc2c1NC1CCN(Cc2ccccc2)CC1 [Compound 280]
6.30 to 7.00 | COCc1cnc2sc(CC(F)(F)F)cc2c1NC1CCN(Cc2ccc3[nH]c(C#N)cc3c2)CC1 [Compound 281]
5.70 to 6.30 | CCCc1cc2c(NC3CCN(Cc4ccccc4)CC3)ccnc2s1 [Compound 282]
> 7.00 | O=C(Cc1ccc(NS(=O)(=O)N2CCCCC2)cc1Cl)N1CCN(C2=NC=NC3SC(CC(F)(F)F)=CC23)CC1 (stereo not drawn) [Compound 284]
> 7.00 | O=C(Cc1ccc(NS(=O)(=O)C2CC2)cc1Cl)N1CCN(C2=NC=NC3SC(CC(F)(F)F)=CC23)CC1 (stereo not drawn) [Compound 285]
> 7.00 | NS(=O)(=O)Cc1ccc(CC(=O)N2CCN(C3=NC=NC4SC(CC(F)(F)F)=CC34)CC2)c(Cl)c1 (stereo not drawn) [Compound 286]
5.70 to 6.30 | O=C(Cc1ccc(NS(=O)(=O)CC(F)(F)F)cc1Cl)N1CCN(C2=NC=NC3SC(CC(F)(F)F)=CC23)CC1 (stereo not drawn) [Compound 287]
> 7.00 | Cc1c(CN2CC[C@@H](Nc3ncnc4sc(CC(F)(F)F)cc34)[C@H](NCCc3ccccc3)C2)ccc2c1cc(C#N)n2CC(N)=O [Compound 288]
> 7.00 | N#Cc1cc2cc(CN3CCC(Nc4ncnc5sc(CC(F)(F)F)cc45)C(NCc4cccc(F)c4)C3)ccc2[nH]1 (stereo not drawn) [Compound 289]
> 7.00 | N#Cc1cc2c(CO)c(CN3CCC(Nc4ncnc5sc(CC(F)(F)F)cc45)CC3)ccc2[nH]1 [Compound 290]
> 7.00 | N#Cc1cc2cc(CN3CCC(Nc4ncnc5sc(CC(F)(F)F)cc45)CC3)ccc2n1CC(=O)NC1CC1 [Compound 291]
> 7.00 | CC(C)OC(CO)Cn1c(C#N)cc2cc(CN3CCC(Nc4ncnc5sc(CC(F)(F)F)cc45)CC3)ccc21 (stereo not drawn) [Compound 292]

pIC50 | Compound
> 7.00 | N#Cc1cc2c(C3CC3)c(CN3CCC(Nc4ncnc5sc(CC(F)(F)F)cc45)CC3)ccc2[nH]1 [Compound 293]
> 7.00 | N#Cc1cc2c(CN)c(CN3CCC(Nc4ncnc5sc(CC(F)(F)F)cc45)CC3)ccc2[nH]1 [Compound 294]
> 7.00 | CCc1c(CN2CCC(Nc3ncnc4sc(CC(F)(F)F)cc34)CC2)ccc2[nH]c(C#N)cc12 [Compound 295]
> 7.00 | N#Cc1cc2c(CCO)c(CN3CCC(Nc4ncnc5sc(CC(F)(F)F)cc45)CC3)ccc2[nH]1 [Compound 296]
> 7.00 | N#Cc1cc2cc(CN3CCC(Nc4ncnc5sc(CC(F)(F)F)cc45)CC3)ccc2n1CC(CO)OC(F)F (stereo not drawn) [Compound 297]
> 7.00 | N#Cc1cc2c(Br)c(CN3CCC(Nc4ncnc5sc(CC(F)(F)F)cc45)CC3)ccc2[nH]1 [Compound 298]
> 7.00 | Cc1c(CN2CCC(Nc3ncnc4sc(CC(F)(F)F)cc34)CC2)ccc2c1cc(C#N)n2CCO [Compound 299]
> 7.00 | Cc1c(CN2CCC(Nc3ncnc4sc(CC(F)(F)F)cc34)CC2)ccc2c1cc(C#N)n2CC(O)CO (stereo not drawn) [Compound 300]
> 7.00 | Cc1c(CN2CCC(Nc3ncnc4sc(CC(F)(F)F)cc34)CC2)ccc2c1cc(C#N)n2CC(N)=O [Compound 301]
> 7.00 | Cc1c(CN2CCC(Nc3ncnc4sc(CC(F)(F)F)cc34)CC2)ccc2c1cc(C#N)n2CC(CO)OC(C)C (stereo not drawn) [Compound 302]
> 7.00 | Cc1c(CN2CCC(Nc3ncnc4sc(CC(F)(F)F)cc34)CC2)ccc2c1cc(C#N)n2Cc1cn(C)nn1 [Compound 303]
> 7.00 | Cc1c(CN2CCC(Nc3ncnc4sc(CC(F)(F)F)cc34)CC2)ccc2c1cc(C#N)n2CCn1cncn1 [Compound 304]
> 7.00 | N#Cc1cc2c(C(F)F)c(CN3CCC(Nc4ncnc5sc(CC(F)(F)F)cc45)CC3)ccc2[nH]1 [Compound 305]
> 7.00 | C=C(Br)Cn1c(C#N)cc2cc(CN3CCC(Nc4ncnc5sc(CC(F)(F)F)cc45)CC3)ccc21 [Compound 306]
> 7.00 | N#Cc1cc2c(Br)c(CN3CCC(Nc4ncnc5sc(CC(F)(F)F)cc45)CC3)ccc2n1CC(N)=O [Compound 307]
> 7.00 | CCCCC(O)(CO)Cn1c(C#N)cc2cc(CN3CCC(Nc4ncnc5sc(CC(F)(F)F)cc45)CC3)ccc21 (stereo not drawn) [Compound 308]
> 7.00 | Cc1c(CN2CCC(Nc3ncnc4sc(CC(F)(F)F)cc34)CC2)ccc2c1cc(C#N)n2Cc1cn[nH]c1 [Compound 309, 1-((1H-pyrazol-4-yl)methyl)-4-methyl-5-((4-((6-(2,2,2-trifluoroethyl)thieno[2,3-d]pyrimidin-4-yl)amino)piperidin-1-yl)methyl)-1H-indole-2-carbonitrile]
> 7.00 | N#Cc1cc2c(C(F)F)c(CN3CCC(Nc4ncnc5sc(CC(F)(F)F)cc45)CC3)ccc2n1CC(N)=O [Compound 310]
> 7.00 | Cc1c(CN2CCC(Nc3ncnc4sc(CC(F)(F)F)cc34)CC2)ccc2c1cc(C#N)n2Cc1c[nH]nn1 [Compound 311]
> 7.00 | N#Cc1cc2cc(CN3CCC(Nc4ncnc5sc(CC(F)(F)F)cc45)CC3)ccc2n1Cc1cc(OCC2CC2)n[nH]1 [Compound 312]
> 7.00 | COCCOCCn1cc(Cn2c(C#N)cc3c(C)c(CN4CCC(Nc5ncnc6sc(CC(F)(F)F)cc56)CC4)ccc32)cn1 [Compound 313]

pIC50 | Compound
> 7.00 | COCCOCC(O)(CO)Cn1c(C#N)cc2cc(CN3CCC(Nc4ncnc5sc(CC(F)(F)F)cc45)CC3)ccc21 (stereo not drawn) [Compound 314]
> 7.00 | COCCOCC(O)(CO)Cn1c(C#N)cc2c(C)c(CN3CCC(Nc4ncnc5sc(CC(F)(F)F)cc45)CC3)ccc21 (stereo not drawn) [Compound 315]
> 7.00 | COCCOC(CO)Cn1c(C#N)cc2cc(CN3CCC(Nc4ncnc5sc(CC(F)(F)F)cc45)CC3)ccc21 (stereo not drawn) [Compound 316]
> 7.00 | N#Cc1cc2cc(CN3CCC(Nc4ncnc5sc(CC(F)(F)F)cc45)CC3)ccc2n1CC(O)(CO)COCC1CCCCC1 (stereo not drawn) [Compound 317]
> 7.00 | N#Cc1cc2cc(CN3CCC(Nc4ncnc5sc(CC(F)(F)F)cc45)CC3)ccc2n1Cc1cnn(CCOCC2CC2)c1 [Compound 318]
> 7.00 | COCCOCCOC(CO)Cn1c(C#N)cc2cc(CN3CCC(Nc4ncnc5sc(CC(F)(F)F)cc45)CC3)ccc21 (stereo not drawn) [Compound 319]
> 7.00 | N#Cc1cc2cc(CN3CCC(Nc4ncnc5sc(CC(F)(F)F)cc45)CC3)ccc2n1CC(CO)OCC1CCCCC1 (stereo not drawn) [Compound 320]
> 7.00 | N#Cc1cc2c(CO)c(CN3CCC(Nc4ncnc5sc(CC(F)(F)F)cc45)CC3)ccc2n1CCO [Compound 321]
> 7.00 | Cc1nnc(Cn2c(C#N)cc3c(C)c(CN4CCC(Nc5ncnc6sc(CC(F)(F)F)cc56)CC4)ccc32)s1 [Compound 322]
> 7.00 | Cc1ncc(Cn2c(C#N)cc3c(C)c(CN4CCC(Nc5ncnc6sc(CC(F)(F)F)cc56)CC4)ccc32)s1 [Compound 323]
> 7.00 | N#Cc1cc2c(CO)c(CN3CCC(Nc4ncnc5sc(CC(F)(F)F)cc45)CC3)ccc2n1CC(N)=O [Compound 325]
> 7.00 | Cc1c(CN2CCC(Nc3ncnc4sc(CC(F)(F)F)cc34)CC2)ccc2c1cc(C#N)n2Cc1nccs1 [Compound 326]
> 7.00 | Cc1nn[nH]c1Cn1c(C#N)cc2c(C)c(CN3CCC(Nc4ncnc5sc(CC(F)(F)F)cc45)CC3)ccc21 [Compound 327]
> 7.00 | Cc1c(CN2CCC(Nc3ncnc4sc(CC(F)(F)F)cc34)CC2)ccc2c1cc(C#N)n2CCc1cccnc1 [Compound 328]
> 7.00 | Cc1c(CN2CCC(Nc3ncnc4sc(CC(F)(F)F)cc34)CC2)ccc2c1cc(C#N)n2CCN1CCCCC1 [Compound 329]
> 7.00 | Cc1cn[nH]c1Cn1c(C#N)cc2c(C)c(CN3CCC(Nc4ncnc5sc(CC(F)(F)F)cc45)CC3)ccc21 [Compound 330]
> 7.00 | Cc1c(CN2CCC(Nc3ncnc4sc(CC(F)(F)F)cc34)CC2)ccc2c1cc(C#N)n2Cc1cc(O)n[nH]1 [Compound 331]
> 7.00 | Cc1c(CN2CCC(Nc3ncnc4sc(CC(F)(F)F)cc34)CC2)ccc2c1cc(C#N)n2Cc1ncc[nH]1 [Compound 332]
> 7.00 | N#Cc1cc2cc(CN3CCC(Nc4ncnc5sc(CC(F)(F)F)cc45)CC3)ccc2n1CC(O)(CO)CN1CCOCC1 (stereo not drawn) [Compound 333]
> 7.00 | Cc1nnc(Cn2c(C#N)cc3c(C)c(CN4CCC(Nc5ncnc6sc(CC(F)(F)F)cc56)CC4)ccc32)o1 [Compound 334]
> 7.00 | N#Cc1cc2c(CO)c(CN3CCC(Nc4ncnc5sc(CC(F)(F)F)cc45)CC3)ccc2n1Cc1cn[nH]c1 [Compound 335]

From US9505781B2, “Compositions comprising thienopyrimidine and thienopyridine compounds and methods of use thereof” (The Regents of the University of Michigan, priority 2013, dated 2016)
